Results on ten compounds are retold here after ChEMBL document CHEMBL3860050, “Triterpenoids from Momordica balsamina: Reversal of ABCB1-mediated multidrug resistance” (Bioorg Med Chem, 2016).

Series [1] addresses T1, ATP-dependent translocase ABCB1 (Homo sapiens, UniProt P08183). Put plainly: Inhibition of MDR1-mediated efflux-pump activity in mouse L5178Y cells expressing human MDR1 assessed as side scattered light at 2 uM preincubated for 10 mins followed by rhodamine-123 addition measured after 20 mins by flow cytometry (reference value: 194.6 to 286.4). Format: cell-based. A general note: Flow cytometry measures light scatter and fluorescence of single cells or particles in a stream.

Series [2] is described as follows: Antiproliferative activity against mouse L5178Y cells measured after 72 hrs by MTT assay. Format: functional, cell-based. On the technique in general: Tetrazolium dyes change colour on reduction, which living cells bring about.
Series [3] deals with T1, ATP-dependent translocase ABCB1. Put plainly: Inhibition of MDR1-mediated efflux-pump activity in mouse L5178Y cells expressing human MDR1 assessed as fluorescence activity ratio at 2 uM preincubated for 10 mins followed by rhodamine-123 addition measured after 20 mins by flow cytometry. Format: cell-based.
The nature of series [4]: Antiproliferative activity against mouse L5178Y cells expressing human MDR1 measured after 72 hrs by MTT assay. It is filed as functional, cell-based.
Series [5] deals with T1, ATP-dependent translocase ABCB1. Put plainly: Inhibition of MDR1-mediated efflux-pump activity in mouse L5178Y cells expressing human MDR1 assessed as forward scattered light at 2 uM preincubated for 10 mins followed by rhodamine-123 addition measured after 20 mins by flow cytometry (reference value: 455.7 to 509.9). It is filed as cell-based.
The target is the same in series [6]. Put plainly: Inhibition of MDR1-mediated efflux-pump activity in mouse L5178Y cells expressing human MDR1 assessed as forward scattered light at 20 uM preincubated for 10 mins followed by rhodamine-123 addition measured after 20 mins by flow cytometry (reference value: 455.7 to 509.9). Format: cell-based.
For series [7] the target is unchanged. Put plainly: Inhibition of MDR1-mediated efflux-pump activity in mouse L5178Y cells expressing human MDR1 assessed as fluorescence activity ratio at 20 uM preincubated for 10 mins followed by rhodamine-123 addition measured after 20 mins by flow cytometry. It is filed as cell-based.
The target is the same in series [8]. Put plainly: Inhibition of MDR1-mediated efflux-pump activity in mouse L5178Y cells expressing human MDR1 assessed as mean fluorescence intensity at 2 uM preincubated for 10 mins followed by rhodamine-123 addition measured after 20 mins by flow cytometry (reference value: 7.1 to 18.6). Format: cell-based.
Series [9] shares this target. Put plainly: Inhibition of MDR1 in mouse L5178Y cells expressing human MDR1 assessed as doxorubicin-induced antiproliferative activity by measuring combination index at 1.4:1 compound to doxorubicin ratio measured after 48 hrs by MTT assay. Format: cell-based.
Series [10] shares this target. Put plainly: Inhibition of MDR1-mediated efflux-pump activity in mouse L5178Y cells expressing human MDR1 assessed as mean fluorescence intensity at 20 uM preincubated for 10 mins followed by rhodamine-123 addition measured after 20 mins by flow cytometry (reference value: 7.1 to 18.6). Format: cell-based.
The target is the same in series [11]. Put plainly: Inhibition of MDR1-mediated efflux-pump activity in mouse L5178Y cells expressing human MDR1 assessed as side scattered light at 20 uM preincubated for 10 mins followed by rhodamine-123 addition measured after 20 mins by flow cytometry (reference value: 194.6 to 286.4). Format: cell-based.
For series [12] the target is unchanged. Put plainly: Inhibition of MDR1 in mouse L5178Y cells expressing human MDR1 assessed as doxorubicin-induced antiproliferative activity by measuring combination index at 5.7:1 compound to doxorubicin ratio measured after 48 hrs by MTT assay. Format: cell-based.
The target is the same in series [13]. Put plainly: Inhibition of MDR1 in mouse L5178Y cells expressing human MDR1 assessed as doxorubicin-induced antiproliferative activity by measuring combination index at 11.3:1 compound to doxorubicin ratio measured after 48 hrs by MTT assay. Format: cell-based.

T1 sequence (P08183 whole entry): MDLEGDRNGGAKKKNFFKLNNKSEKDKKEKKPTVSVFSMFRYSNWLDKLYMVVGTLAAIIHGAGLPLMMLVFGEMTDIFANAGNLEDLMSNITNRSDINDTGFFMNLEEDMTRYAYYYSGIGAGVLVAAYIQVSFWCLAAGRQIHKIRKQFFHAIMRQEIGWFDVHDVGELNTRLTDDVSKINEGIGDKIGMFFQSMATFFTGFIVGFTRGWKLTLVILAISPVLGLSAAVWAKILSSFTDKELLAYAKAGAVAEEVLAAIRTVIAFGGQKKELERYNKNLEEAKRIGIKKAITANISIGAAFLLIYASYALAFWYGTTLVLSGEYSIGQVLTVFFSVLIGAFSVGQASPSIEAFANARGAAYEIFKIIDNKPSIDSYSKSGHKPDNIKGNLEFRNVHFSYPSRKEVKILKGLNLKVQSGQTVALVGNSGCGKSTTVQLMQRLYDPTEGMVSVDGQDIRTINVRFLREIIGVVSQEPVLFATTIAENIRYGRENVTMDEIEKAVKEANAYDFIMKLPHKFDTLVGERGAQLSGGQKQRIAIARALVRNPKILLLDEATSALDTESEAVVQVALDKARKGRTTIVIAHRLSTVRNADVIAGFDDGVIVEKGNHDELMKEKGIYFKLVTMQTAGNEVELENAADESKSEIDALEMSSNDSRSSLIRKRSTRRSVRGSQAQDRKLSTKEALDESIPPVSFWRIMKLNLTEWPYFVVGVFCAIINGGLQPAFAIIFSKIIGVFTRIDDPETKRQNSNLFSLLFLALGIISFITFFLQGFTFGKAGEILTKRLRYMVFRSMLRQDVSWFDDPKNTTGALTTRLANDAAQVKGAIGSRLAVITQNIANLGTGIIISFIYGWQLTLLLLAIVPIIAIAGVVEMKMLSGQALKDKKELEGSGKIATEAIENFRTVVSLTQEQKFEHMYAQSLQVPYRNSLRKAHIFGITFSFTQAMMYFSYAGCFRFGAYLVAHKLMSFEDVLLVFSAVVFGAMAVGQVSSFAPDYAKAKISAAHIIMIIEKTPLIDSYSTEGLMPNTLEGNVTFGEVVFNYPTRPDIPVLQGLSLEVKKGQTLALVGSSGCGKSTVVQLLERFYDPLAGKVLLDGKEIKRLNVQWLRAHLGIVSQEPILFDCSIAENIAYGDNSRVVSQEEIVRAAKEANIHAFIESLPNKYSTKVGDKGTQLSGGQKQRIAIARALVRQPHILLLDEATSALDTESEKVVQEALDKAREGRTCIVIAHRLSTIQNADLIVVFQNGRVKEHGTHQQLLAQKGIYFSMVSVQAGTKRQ

In the case of `CO[C@H]1C=C2[C@@H](CC[C@H](O)C2(C)C)[C@]2(C)C[C@@H](O)[C@]3(C)[C@@H]([C@H](C)C/C=C/C(C)(C)O)CC[C@@]3(C)[C@H]12`, the Activity worked out at 249.6 in series [1], 568.6 in series [5], 585 in series [6] and 235.8 in [11]. For the same compound, the half-maximal inhibitory concentration (IC50) turned out to be 44.4 µM in series [2] and 46.3 µM in [4]. Moreover, the Ratio in series [3] worked out at 2.7; in series [7], 38.2. For the same compound, the results for the Flu intensity in series [8] and in [10] were 27.2 and 391.6, respectively. Besides, the CI in series [9] is 0.393.
Regarding `CO[C@H]1C=C2[C@@H](CC[C@H](O)C2(C)C)[C@]2(C)CC[C@]3(C)[C@@H]([C@H](C)C[C@H](C=C(C)C)O[C@@H]4O[C@H](CO)[C@@H](O)[C@H](O)[C@H]4O)CC[C@@]3(C)[C@H]12`, the Activity in series [1] is 266.8; in series [5] it was 446.8; in [6] it was 457.3; in series [11], 269.2. Moreover, the CI in series [12] was found to be 0.956. Also, the IC50 in [2] came out at 3.5 µM; in series [4], 32.8 µM. In addition, the results for the Ratio in series [3] and in series [7] were 1 and 49.1, respectively. Also, the Flu intensity turned out to be 12.4 in series [8] and 643.1 in series [10].
`C[C@H](C/C=C/C(C)(C)O)[C@H]1CC[C@@]2(C)[C@@H]3[C@@H](O)C=C4[C@@H](CC[C@H](O)C4(C)C)[C@]3(C)CC[C@]12C`: the Activity in series [1] was determined as 249; in series [5] it was 570.5; in [6], 395.2; in series [11], 243.9. Besides, in series [12], the CI is 0.71. In addition, the IC50 in [2] stood at 18.7 µM; in series [4], 27.4 µM. Also, the Ratio was found to be 7.1 in [3] and 36 in series [7]. The Flu intensity in series [8] is reported as 73.1; in [10], 368.4.
In the case of `CC(C)=C[C@H](O)C[C@@H](C)[C@H]1CC[C@@]2(C)[C@@H]3[C@@H](O)C=C4[C@@H](CC[C@H](O)[C@]4(C)CO)[C@]3(C)CC[C@]12C` [BALSAMINOL A], the Activity in series [1] is recorded as 259; in series [5], 432.9; in series [6], 454.5; in [11], 260. The IC50 came to 7.2 µM in [2] and 12.6 µM in [4]. For the same compound, the CI in series [13] is reported as 0.503. In addition, the Ratio was determined as 1.5 in series [3] and 47.6 in [7]. Besides, the Flu intensity in series [8] was 20.1; in series [10], 766.1.
For the compound `CO[C@H]1C=C2[C@@H](CC[C@H](O)[C@]2(C)CO)[C@]2(C)CC[C@]3(C)[C@@H]([C@H](C)C[C@@H](O)C=C(C)C)CC[C@@]3(C)[C@H]12` [BALSAMINOL B], the Activity in series [1] was determined as 258.8; in [5], 439.5; in series [6], 461.8; in [11] it was 260.7. For the same compound, the IC50 in series [2] was 7.7 µM; in series [4] it was 31 µM. Moreover, the Ratio in series [3] worked out at 7.3; in series [7], 68.7. Moreover, the Flu intensity in series [8] was determined as 95.7; in series [10] it was 899.1. The CI in series [9] came to 0.378.
As for `CC(C)=CC(=O)C[C@@H](C)[C@H]1CC[C@@]2(C)[C@@H]3C(=O)C=C4[C@@H](CC[C@H](O)[C@]4(C)CO)[C@]3(C)CC[C@]12C` [BALSAMINOL C], the Activity in series [1] came out at 205.4; in [5] it was 502.3; in series [6], 502.2; in [11], 195.7. Also, the CI in series [12] came out at 0.268. The IC50 in [2] turned out to be 19 µM; in series [4], 42.6 µM. In addition, the results for the Ratio in [3] and in series [7] were 2.9 and 198.9, respectively. Also, the Flu intensity turned out to be 22.3 in series [8] and 1537.8 in series [10].
For the compound `CC(C)=C[C@H](O)C[C@@H](C)[C@H]1CC[C@@]2(C)[C@@H]3C(=O)C=C4[C@@H](CC[C@H](O)C4(C)C)[C@]3(C)CC[C@]12C` [BALSAMINOL E], the Activity in series [1] worked out at 243.4; in [5], 582.7; in series [6], 593; in [11], 234.5. The CI in [12] is 0.721. The IC50 in series [2] came to 41.3 µM; in series [4], 55.2 µM. The values for the Ratio in series [3] and in series [7] were 2 and 64.8, respectively. The Flu intensity worked out at 20.8 in series [8] and 663.1 in [10].
Consider `CO[C@H]1C=C2[C@@H](CC[C@H](O)C2(C)C)[C@]2(C)C[C@@H](O)[C@]3(C)[C@@H]([C@H](C)C[C@@H](O)C=C(C)C)CC[C@@]3(C)[C@H]12` [CUCURBALSAMINOL C], for which the Activity was 241.8 in [1], 568.5 in series [5], 564.3 in [6] and 237.6 in series [11]. Also, the CI in series [12] is 0.416. In addition, the IC50 in series [2] stood at 19.5 µM; in series [4] it was 34.6 µM. Besides, the Ratio in [3] worked out at 3.1; in [7], 19.8. Besides, the Flu intensity in [8] is 31.6; in series [10], 202.8.
As to `CC(C)=C[C@H](O)C[C@@H](C)[C@H]1CC[C@@]2(C)[C@@H]3C=C[C@@]45OC[C@]3(CC[C@]12C)[C@@H]4CC[C@H](O)C5(C)C` [KARAVILAGENIN E], the Activity was 234.2 in series [1], 568.8 in series [5], 474 in series [6] and 242 in series [11]. Moreover, the CI in [12] was found to be 0.437. Besides, the values for the IC50 in series [2] and in [4] were 21.3 µM and 45.2 µM, respectively. The Ratio in series [3] is listed as 3.8; in series [7], 72.6. The Flu intensity in [8] worked out at 38.4; in [10], 743.8.
Regarding `CC(C)=C[C@@H](C[C@@H](C)[C@H]1CC[C@@]2(C)[C@@H]3[C@@H](OC(=O)c4ccccc4)C=C4[C@@H](CC[C@H](OC(=O)c5ccccc5)C4(C)C)[C@]3(C)CC[C@]12C)OC(=O)c1ccccc1` [TRIBENZOYLBALSAMINOL F], the Activity in [1] stood at 188.7; in [5], 524.2; in series [6], 538.1; in series [11] it was 181.7. In addition, the figures for the IC50 in [2] and in series [4] were 74.7 µM and 87.9 µM, respectively. For the same compound, the Ratio in [3] came out at 1.3; in series [7] it was 1.1. The Flu intensity in [8] came to 7.6; in series [10] it was 7.1.

A word on the IC50: it is the concentration needed to halve the response being measured.
